Experimental data: ChEMBL document CHEMBL3608213, “Inhibitors of the Epidermal Growth Factor Receptor (EGFR) May Provide Effective Treatment for Lung Adenocarcinoma” (ACS Med Chem Lett, 2015)

Tests used:
[1] = target: T1, Epidermal growth factor receptor (Homo sapiens, UniProt P00533); assay: Inhibition of EGFR deletion/T790M mutant in human PC9-DRH cells assessed as inhibition of phosphorylation at Y1068 after 2 hrs by sandwich ELISA method; format: cell-based
Target sequence in this assay (P00533 25-1210 limits assumed, stated change not applied): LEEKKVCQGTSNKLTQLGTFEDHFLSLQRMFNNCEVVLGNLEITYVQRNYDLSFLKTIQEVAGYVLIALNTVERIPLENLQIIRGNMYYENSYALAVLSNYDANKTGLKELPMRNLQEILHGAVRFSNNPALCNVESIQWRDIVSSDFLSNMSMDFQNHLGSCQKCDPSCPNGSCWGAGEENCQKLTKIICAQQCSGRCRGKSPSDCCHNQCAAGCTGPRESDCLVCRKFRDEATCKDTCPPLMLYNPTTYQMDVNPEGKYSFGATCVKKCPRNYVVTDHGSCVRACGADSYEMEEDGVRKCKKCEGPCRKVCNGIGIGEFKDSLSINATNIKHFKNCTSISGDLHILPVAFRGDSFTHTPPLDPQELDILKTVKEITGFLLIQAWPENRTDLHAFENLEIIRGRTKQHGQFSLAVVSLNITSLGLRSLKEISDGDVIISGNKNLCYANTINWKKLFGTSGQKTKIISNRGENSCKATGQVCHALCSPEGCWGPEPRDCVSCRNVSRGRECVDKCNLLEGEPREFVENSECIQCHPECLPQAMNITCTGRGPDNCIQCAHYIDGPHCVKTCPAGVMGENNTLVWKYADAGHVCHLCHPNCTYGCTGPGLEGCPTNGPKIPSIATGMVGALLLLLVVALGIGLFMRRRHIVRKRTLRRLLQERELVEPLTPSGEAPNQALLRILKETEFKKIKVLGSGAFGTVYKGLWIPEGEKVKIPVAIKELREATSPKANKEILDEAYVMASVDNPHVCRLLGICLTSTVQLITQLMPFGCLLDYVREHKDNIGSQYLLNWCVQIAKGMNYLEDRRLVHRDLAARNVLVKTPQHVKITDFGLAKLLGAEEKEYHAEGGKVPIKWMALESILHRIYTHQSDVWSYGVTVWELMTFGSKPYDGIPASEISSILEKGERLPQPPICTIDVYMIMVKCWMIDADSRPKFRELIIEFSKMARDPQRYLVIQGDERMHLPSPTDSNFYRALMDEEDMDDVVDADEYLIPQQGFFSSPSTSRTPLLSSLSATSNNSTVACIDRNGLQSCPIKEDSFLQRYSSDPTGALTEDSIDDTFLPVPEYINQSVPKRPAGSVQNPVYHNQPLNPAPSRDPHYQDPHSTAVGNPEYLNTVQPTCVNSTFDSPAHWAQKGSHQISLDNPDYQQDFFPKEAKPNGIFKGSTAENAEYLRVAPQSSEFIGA

[2] = target: Epidermal growth factor receptor (Homo sapiens, UniProt P00533, E746-A750DEL); assay: Inhibition of EGFR E746-A750 deletion mutant in human PC9 cells assessed as inhibition of phosphorylation at Y1068 after 2 hrs by sandwich ELISA method; format: cell-based, PC-9
Epidermal growth factor receptor (Homo sapiens, UniProt P00533, E746-A750DEL), sequence (P00533 whole entry E746-A750del, looked up): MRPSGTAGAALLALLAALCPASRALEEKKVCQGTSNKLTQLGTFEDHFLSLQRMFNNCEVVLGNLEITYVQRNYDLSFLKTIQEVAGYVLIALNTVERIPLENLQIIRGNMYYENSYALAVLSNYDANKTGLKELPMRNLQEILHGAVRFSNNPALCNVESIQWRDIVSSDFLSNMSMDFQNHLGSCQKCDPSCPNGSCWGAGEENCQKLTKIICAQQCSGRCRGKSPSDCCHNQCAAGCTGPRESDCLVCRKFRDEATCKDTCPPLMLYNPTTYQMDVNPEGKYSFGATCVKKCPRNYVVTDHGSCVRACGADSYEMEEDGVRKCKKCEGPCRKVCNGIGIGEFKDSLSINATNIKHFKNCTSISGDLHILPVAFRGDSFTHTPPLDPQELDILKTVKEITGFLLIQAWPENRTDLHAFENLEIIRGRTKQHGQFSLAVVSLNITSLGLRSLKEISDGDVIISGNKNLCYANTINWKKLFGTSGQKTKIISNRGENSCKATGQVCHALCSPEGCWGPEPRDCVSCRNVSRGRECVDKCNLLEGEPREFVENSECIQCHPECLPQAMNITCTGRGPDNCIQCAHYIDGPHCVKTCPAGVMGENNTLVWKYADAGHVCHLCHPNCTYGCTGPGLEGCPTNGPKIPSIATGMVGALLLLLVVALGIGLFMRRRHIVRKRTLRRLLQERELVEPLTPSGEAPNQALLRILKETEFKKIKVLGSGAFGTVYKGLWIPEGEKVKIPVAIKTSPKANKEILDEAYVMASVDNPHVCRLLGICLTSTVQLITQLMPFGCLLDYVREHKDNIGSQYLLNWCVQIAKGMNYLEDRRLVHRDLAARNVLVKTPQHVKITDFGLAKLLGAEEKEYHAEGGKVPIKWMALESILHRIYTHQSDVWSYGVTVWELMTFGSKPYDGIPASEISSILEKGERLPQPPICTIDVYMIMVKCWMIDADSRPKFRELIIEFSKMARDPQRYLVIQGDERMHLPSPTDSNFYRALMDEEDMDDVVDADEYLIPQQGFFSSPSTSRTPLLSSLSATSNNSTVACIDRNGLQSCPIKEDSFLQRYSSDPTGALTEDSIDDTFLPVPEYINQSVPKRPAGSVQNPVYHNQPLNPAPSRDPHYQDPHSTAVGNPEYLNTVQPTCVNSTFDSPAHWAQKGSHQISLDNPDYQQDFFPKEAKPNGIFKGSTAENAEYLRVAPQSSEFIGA

[3] = target: T1, Epidermal growth factor receptor; assay: Inhibition of wild type EGFR in human A549 cells assessed as inhibition of phosphorylation at Y1068 after 2 hrs by sandwich ELISA method; format: cell-based
Target sequence in this assay (P00533 whole entry): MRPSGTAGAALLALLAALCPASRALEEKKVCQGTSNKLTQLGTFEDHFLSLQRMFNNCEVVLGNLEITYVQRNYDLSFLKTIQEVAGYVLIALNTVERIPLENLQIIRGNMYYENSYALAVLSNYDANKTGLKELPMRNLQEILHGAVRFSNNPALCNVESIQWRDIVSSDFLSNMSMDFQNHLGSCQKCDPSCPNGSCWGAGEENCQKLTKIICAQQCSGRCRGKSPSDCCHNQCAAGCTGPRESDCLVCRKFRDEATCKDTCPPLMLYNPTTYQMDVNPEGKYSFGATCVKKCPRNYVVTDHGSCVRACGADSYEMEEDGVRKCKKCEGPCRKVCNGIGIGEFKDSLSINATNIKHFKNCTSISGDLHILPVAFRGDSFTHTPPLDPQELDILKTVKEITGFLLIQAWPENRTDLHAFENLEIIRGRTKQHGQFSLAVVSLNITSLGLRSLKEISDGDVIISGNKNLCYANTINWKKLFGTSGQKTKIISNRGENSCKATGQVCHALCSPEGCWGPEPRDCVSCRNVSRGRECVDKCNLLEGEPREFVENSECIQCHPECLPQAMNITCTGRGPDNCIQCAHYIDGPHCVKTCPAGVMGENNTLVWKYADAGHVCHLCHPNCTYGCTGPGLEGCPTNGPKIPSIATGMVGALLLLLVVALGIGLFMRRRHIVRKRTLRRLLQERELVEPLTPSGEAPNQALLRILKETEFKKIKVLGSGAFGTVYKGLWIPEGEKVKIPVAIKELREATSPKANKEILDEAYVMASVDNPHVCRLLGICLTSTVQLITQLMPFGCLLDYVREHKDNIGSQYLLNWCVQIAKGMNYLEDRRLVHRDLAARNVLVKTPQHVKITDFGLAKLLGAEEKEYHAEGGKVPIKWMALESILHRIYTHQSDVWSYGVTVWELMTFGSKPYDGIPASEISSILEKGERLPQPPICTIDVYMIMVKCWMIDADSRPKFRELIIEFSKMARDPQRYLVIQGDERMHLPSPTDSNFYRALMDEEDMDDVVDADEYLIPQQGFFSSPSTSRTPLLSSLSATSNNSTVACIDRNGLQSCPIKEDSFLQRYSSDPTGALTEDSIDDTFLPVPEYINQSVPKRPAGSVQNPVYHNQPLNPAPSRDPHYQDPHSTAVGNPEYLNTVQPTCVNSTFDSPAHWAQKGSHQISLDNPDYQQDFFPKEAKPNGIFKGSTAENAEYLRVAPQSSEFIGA

Structure (SMILES) | IC50 [1] [nM] | IC50 [2] [nM] | IC50 [3] [nM]
C=CC(=O)N1C[C@@H]2CN(c3nc(Nc4ccc(N5CCN(C)CC5)cc4)c4ncn(C(C)C)c4n3)C[C@@H]2C1 | 18 | 8 | 
C=CC(=O)N[C@@H]1CN(c2nc(Nc3cn(C)nc3C)c3ncn(C(C)C)c3n2)C[C@H]1F | 2130 | 6650 | 10000
C=CC(=O)N[C@H]1CCN(c2nc(Nc3ccc(N4CCN(C)CC4)cc3)c3ncn(CCO)c3n2)C1 |  | 31 | 
C=CC(=O)N[C@@H]1CN(c2nc(Nc3cn(CC)nc3OC)c3ncn(C)c3n2)C[C@H]1F | 1 | 6 | 
